Results on 41 compounds are retold here after patent US20110190365A1, “Insecticidal 4-phenyl-1H-pyrazoles” (Bayer Crop Science AG, priority 2008, published 2011).

The first data set can be described thus: log P by HPLC on a reversed-phase column (C18), EEC Directive 79/831 Annex V.A8. The data set is classed as physicochemical. The note with it: HCOOH. The protocol: The stated log P values were determined in accordance with EEC Directive 79/831 Annex V.A8 by HPLC (High Performance Liquid Chromatography) using a reversed-phase column (C18).
Regarding `Cc1cc(-n2nc(C(F)(F)F)c(-c3cc(Cl)cc(Cl)c3)c2N)ccc1C(=O)NC(C)c1ccc(Cl)cc1` (centres unmarked) [I-A-Q2-213], the “log P (HCOOH)” value is given as “I-A-Q2-213: log P (HCOOH): 4.89”.
For the compound `Cc1cc(-n2nc(C(F)(F)F)c(-c3cc(Cl)cc(Cl)c3)c2[S+](C)[O-])ccc1C(=O)NCC(F)(F)C(F)F` (single isomer, unassigned) [I-A-Q2-284], the “log P (HCOOH)” value is recorded as “I-A-Q2-284: log P (HCOOH): 4.32”.
Still for that read-out and setting: under `Cc1cc(-n2nc(C(F)(F)c3ccc(C(F)(F)F)cc3)c(-c3cc(Cl)cc(C(F)(F)F)c3)c2N)ccc1C(=O)NCC(F)(F)C(F)F` [I-A-Q2-289] stands “I-A-Q2-289: log P (HCOOH): 4.95”; under `Cc1cc(-n2nc(C(F)(F)F)c(-c3cc(Cl)cc(Cl)c3)c2N)ccc1C(=O)NC(C)Cc1ccccn1` (centres unmarked) [I-A-Q2-065], “I-A-Q2-065: log P (HCOOH): 2.72”; under `Cc1cc(-n2nc(C)c(-c3ccc(F)cc3Cl)c2N)ccc1C(=O)NCc1ccccn1` [I-A-Q2-368], “I-A-Q2-368: log P (HCOOH): 1.79”.
On the same count and under the same terms, in the case of `CCOC(=O)c1ccc(-n2nc(C(F)(F)F)c(Cl)c2N)cc1` [XI-A-042] it was “XI-A-042: log P (HCOOH): 3.52”; in that of `Cc1cc(-n2nc(CC(C)C)c(-c3ccc(Cl)cc3)c2N)ccc1C(=O)NCc1ccccn1` [I-A-Q2-382], “I-A-Q2-382: log P (HCOOH): 2.84”.
For `Cc1cc(-n2nc(C)c(-c3ccc(Cl)cc3)c2N)ccc1C(=O)NCC(F)(F)C(F)F` [I-A-Q2-325], the “log P (HCOOH)” value is “I-A-Q2-325: log P (HCOOH): 2.85”.
With `CC(NC(=O)c1ccc(-n2nc(C(F)(F)F)c(-c3cc(Cl)cc(Cl)c3)c2N)cc1)c1ccccc1` (centres unmarked) [I-A-Q2-150], the “log P (HCOOH)” value is on record as “I-A-Q2-150: log P (HCOOH): 4.65”.
With `Cc1cc(-n2nc(C(F)(F)F)c(-c3cc(Cl)cc(Cl)c3)c2N)ccc1C(=O)NCc1ccncn1` [I-A-Q2-260], the “log P (HCOOH)” value is “I-A-Q2-260: log P (HCOOH): 3.33”.
Regarding `Cc1cc(-n2nc(C(F)(F)F)c(-c3ccc(Cl)c(Cl)c3)c2N)ccc1C(=O)NCC(F)(F)C(F)F` [I-A-Q2-304], the “log P (HCOOH)” value was “I-A-Q2-304: log P (HCOOH): 4.00”.
Regarding `CCCC(NC(=O)c1ccc(-n2nc(C(F)(F)F)c(-c3cc(Cl)cc(Cl)c3)c2N)cc1C)C(F)(F)F` (centres unmarked) [I-A-Q2-201], the “log P (HCOOH)” value is “I-A-Q2-201: log P (HCOOH): 5.11”.
Take `Nc1c(-c2cc(Cl)cc(Cl)c2)c(C(F)(F)F)nn1-c1ccc(C(=O)NC2CC2)cc1` [I-A-Q2-136]: the “log P (HCOOH)” value is given as “I-A-Q2-136: log P (HCOOH): 3.80”.
Still for that read-out and setting: under `Cc1cc(-n2nc(C(F)(F)F)c(-c3cc(Cl)cc(Cl)c3)c2N)ccc1C(=O)NCc1ncccc1C` [I-A-Q2-029] stands “I-A-Q2-029: log P (HCOOH): 3.24”; under `C=CCNC(=O)c1ccc(-n2nc(C(F)(F)F)c(-c3cc(Cl)cc(Cl)c3)c2N)cc1C` [I-A-Q2-062], “I-A-Q2-062: log P (HCOOH): 3.94”; under `Cc1cc(-n2nc(C(F)(F)F)c(-c3cc(Cl)cc(Cl)c3)c2N)ccc1C(=O)NCC1CC1` [I-A-Q2-220], “I-A-Q2-220: log P (HCOOH): 4.11”.
Regarding `Nc1c(-c2cc(Cl)cc(Cl)c2)c(C(F)(F)F)nn1-c1ccc(C(=O)NCCC(F)(F)F)cc1` [I-A-Q2-139], the “log P (HCOOH)” value is “I-A-Q2-139: log P (HCOOH): 4.25”.
Same read-out and setting: under `Cc1cc(-n2nc(C(F)(F)F)c(-c3ccccc3C)c2N)ccc1C(=O)NCC(F)(F)C(F)F` [I-A-Q2-317] stands “I-A-Q2-317: log P (HCOOH): 3.32”.
Still for that read-out and setting: under `CSCCNC(=O)c1ccc(-n2nc(C(F)(F)F)c(-c3cc(Cl)cc(Cl)c3)c2N)cc1C` [I-A-Q2-205] stands “I-A-Q2-205: log P (HCOOH): 4.17”; under `Cc1cc(-n2nc(C(F)(F)F)c(-c3cc(Cl)cc(Cl)c3)c2N)ccc1C(=O)NCCc1ccccc1` [I-A-Q2-050], “I-A-Q2-050: log P (HCOOH): 4.64”.
As to `Cc1cc(-n2nc(C(F)(F)Oc3ccccc3)c(-c3cc(Cl)cc(C(F)(F)F)c3)c2N)ccc1C(=O)NCC(F)(F)C(F)F` [I-A-Q2-299], the “log P (HCOOH)” value is “I-A-Q2-299: log P (HCOOH): 4.51”.
For `Nc1c(Cl)c(C(F)(F)F)nn1-c1ccc(C(=O)O)cc1` [XI-A-043], the “log P (HCOOH)” value is reported as “XI-A-043: log P (HCOOH): 2.34”.
On the same count and under the same terms, in the case of `Cc1cc(-n2nc(C(F)(F)Oc3cc(Cl)ccc3Cl)c(-c3cc(Cl)cc(C(F)(F)F)c3)c2N)ccc1C(=O)NCC(F)(F)C(F)F` [I-A-Q2-296] it was “I-A-Q2-296: log P (HCOOH): 5.14”; in that of `CNC(=O)c1ccc(-n2nc(-c3ccccc3)c(-c3ccc(Cl)cc3)c2N)cc1` [I-A-Q2-078], “I-A-Q2-078: log P (HCOOH): 2.94”.
Same read-out and setting: in the case of `Cc1cc(-n2nc(C(F)(F)F)c(-c3ccc(Cl)c(F)c3)c2N)ccc1C(=O)NCc1ccccn1` [I-A-Q2-353] it was “I-A-Q2-353: log P (HCOOH): 2.84”; in that of `Cc1cc(C)cc(-c2c(C(F)(F)F)nn(-c3ccc(C(=O)NC4CC4)cc3)c2N)c1` [I-A-Q2-179], “I-A-Q2-179: log P (HCOOH): 3.24”; in that of `Cc1cc(-n2nc(C(F)(F)F)c(-c3cc(Cl)cc(Cl)c3)c2N)ccc1C(=O)N(C)Cc1cccnc1` [I-A-Q2-209], “I-A-Q2-209: log P (HCOOH): 3.02”.

Staying with this data set, now noted: HCOOH; Table 4, compounds of formula I-A-Q4.
Consider `COC(=O)c1cnc(-n2nc(C(F)(F)F)c(-c3cc(Cl)cc(Cl)c3)c2N)nc1C(F)(F)F` [I-A-Q4-063], for which the “log P (HCOOH)” value is on record as “I-A-Q4-063: log P (HCOOH): 4.66”.
Take `Nc1c(-c2ccc(Cl)cc2)c(C2CC2)nn1-c1ccc(Cl)cn1` [I-A-Q4-024]: the “log P (HCOOH)” value is given as “I-A-Q4-024: log P (HCOOH): 5.36”.
In the case of `Nc1c(-c2cc(F)cc(Cl)c2)c(C(F)(F)F)nn1-c1ccc(Cl)cn1` [I-A-Q4-040], the “log P (HCOOH)” value is “I-A-Q4-040: log P (HCOOH): 5.29”.
On the same count and under the same terms, under `COC(=O)c1ccc(-n2nc(C(F)(F)F)c(-c3cc(Cl)cc(Cl)c3)c2N)cc1N(C)C` [I-A-Q4-119] stands “I-A-Q4-119: log P (HCOOH): 4.71”; under `Nc1c(-c2cc(Cl)cc(Cl)c2)c(C(F)(F)F)nn1-c1ccc(F)c(C(F)(F)F)c1` [I-A-Q4-105], “I-A-Q4-105: log P (HCOOH): 5.25”.
Still for that read-out and setting: under `Nc1c(-c2ccc(Cl)cc2)c(C(F)(F)F)nn1-c1ccc(C(=O)O)cc1` [I-A-Q4-088] stands “I-A-Q4-088: log P (HCOOH): 3.28”.

Staying with this data set, now noted: HPLC, reversed-phase C18, mobile phase with formic acid.
In the case of `Cc1nn(-c2ccc(-n3cncn3)c(C#N)c2)c(N)c1-c1ccccc1Cl` [I-A-Q1-060], the “log P (HCOOH)” value is given as “I-A-Q1-060: log P (HCOOH): 2.27”.
Same read-out and setting: under `N#Cc1cc(-n2nc(C(F)(F)Oc3ccccc3)c(-c3cc(Cl)cc(C(F)(F)F)c3)c2N)ccc1-n1cncn1` [I-A-Q1-074] stands “I-A-Q1-074: log P (HCOOH): 4.33”; under `N#Cc1cc(-n2nc(C(F)(F)F)c(-c3cc(Cl)cc(Cl)c3)c2N)ccc1-n1nc[nH]c1=O` [I-A-Q1-026], “I-A-Q1-026: log P (HCOOH): 3.37”.
Same read-out and setting: in the case of `N#Cc1ccc(-c2c(C(F)(F)F)nn(-c3ccc(-n4cncn4)c(C#N)c3)c2N)cc1` [I-A-Q1-047] it was “I-A-Q1-047: log P (HCOOH): 2.64”; in that of `Cc1nn(-c2ccc(-n3cncn3)c(C#N)c2)c(N)c1-c1ccc(Cl)cc1` [I-A-Q1-029], “I-A-Q1-029: log P (HCOOH): 2.65”.
Still for that read-out and setting: under `Cc1nn(-c2ccc(-n3cncn3)c(C#N)c2)c(N)c1-c1cc(Cl)ccc1Cl` [I-A-Q1-028] stands “I-A-Q1-028: log P (HCOOH): 2.65”; under `N#Cc1cc(-n2nc(C(F)(F)F)c(-c3cc(Cl)cc(Cl)c3)c2N)ccc1-n1cc(Br)cn1` [I-A-Q1-078], “I-A-Q1-078: log P (HCOOH): 4.83”; under `Cc1nn(-c2ccc(-n3cncn3)c(C#N)c2)c(N)c1-c1ccccc1` [I-A-Q1-066], “I-A-Q1-066: log P (HCOOH): 2.14”.
